Data on one compound can be found in patent US9957236B2, “Selective inhibitors interfering with fibroblast growth factor receptor and FRS2 interaction for the prevention and treatment of cancer and other diseases” (LIMITED LIABILITY COMPANY “RUSSIAN PHARMACEUTICAL …, priority 2014, dated 2018).

Assay [1] deals with non-small cell lung cancer NCI-H226. As to the kind of experiment: Tumor growth of NCI-H226 xenograft in nude mice. Type of assay: in vivo. The following applies: 30 day; NCI-H226 not expressing FGFR2, 30 mg/kg daily through a stomach tube; P=0.619 vs control. On the procedure:
(§1) Females of immunodeficient mice (nude) at the age of 8 weeks were administered 2×10^6 tumor cells of human cell lines with various expression of FGFR2: • cell line of triple-negative breast cancer SUM52PE strongly expressing FGFR2 (purchased from Asterand, Inc. (Detroit, Mich.) • cell line of triple negative breast cancer HS578T weakly expressing FGFR2 (purchased from ATCC (CRL-125) • cell line of non-small cell lung cancer NCI-H226 not expressing FGFR2 (purchased from ATCC (CRL-5826)
(§2) After the tumor growth got established (1 mm^3), the mice were divided into control and treatment groups in accordance with the tumor type.
Control group 3 (N=10): NCI-H226, administration of water through a stomach tube, daily.
Treatment group 3 (N=10): NCI-H226, administration of inhibiter RPT835 through a stomach tube in a dose of 30 mg/kg, daily.
(§3) Size of tumor and weight of animals were measured every 3 day. The mice underwent euthanasia when the tumor reached the size of 2,000 mm^3 or on the 60 day of the experiment.

The test system of assay [2] is hFOB cells. As to the kind of experiment: Proliferation of hFOB cells expressing FGFR2 IIIc. Type of assay: cell-based, human. The following applies: RPT835 1 micron, FGF-1 100 ng/ml. On the procedure: The research assessed the influence of inhibitor RPT835 determined by formula II of this invention, intervention with interaction of FGFR2 represented by two most frequent isoforms IIIb and IIIc with FRS2. For this, human cell line of embryonal osteoblasts (hFOB) expressing only FGFR2 […], and human cell line of breast cancer SUM-52 expressing FGFR2 IIIb (all main versions of isoform—C1, C2, C3) were chosen.
Cells were divided into the groups: • 1a) hFOB • 1b) hFOB, stimulating FGF-1 (100 ng/ml) • 1c) hFOB, cultivation with RPT835 (1 micron) and stimulation of FGF-1 (100 ng/ml) • 2a) SUM-52 • 2b) SUM-52, stimulation of FGF-1 (100 ng/ml) • 2c) SUM-52, cultivation with RPT835 (1 micron) and stimulation of FGF-1 (100 ng/ml)

The test system of assay [3] is triple negative breast cancer SUM52PE. As to the kind of experiment: Tumor growth of SUM52PE xenograft in nude mice. In kind it is in vivo. As to the method:
as §1, §2
Control group 1 (N=10): SUM52PE, administration of water through a stomach tube, daily.
Treatment group 1 (N=10): SUM52PE, administration of inhibitor RPT835 through a stomach tube in a dose of 30 mg/kg, daily.
as §3

Regarding `Cc1cc([N+](=O)[O-])c(NS(=O)(=O)c2cccc(C(=O)O)c2)cc1-c1cccnc1` [RPT835, 3-(N-(4-methyl-2-nitro-5-(pyridin-3-yl)phenyl)sulfamoyl)benzoic acid], the average tumor volume in assay [1] is 1,053±259.7 mm3. In addition, the proliferation of cells result in assay [2] is given as “reliably suppressed proliferation”. In assay [3] (30 day, 30 mg/kg daily), the “Slowdown of the tumor growth” value turned out to be 60.2%. The “average size of the tumor” value in assay [3] (30 day, 30 mg/kg daily through a stomach tube) is given as 1,080.7±49 mm3. The “Size of tumor (median)” value in assay [3] (Day 7, 30 mg/kg daily through a stomach tube) was found to be 48.0 mm3; in assay [3] (Day 10, 30 mg/kg daily through a stomach tube), 112.0 mm3; in assay [3] (Day 13, 30 mg/kg daily through a stomach tube) it was 181.0 mm3; in assay [3] (Day 16, 30 mg/kg daily through a stomach tube), 256.0 mm3; in assay [3] (Day 19, 30 mg/kg daily through a stomach tube), 417.0 mm3; in assay [3] (Day 22, 30 mg/kg daily through a stomach tube), 591.0 mm3. Besides, the “Size of tumor (median)” value in assay [3] (Day 25, 30 mg/kg daily through a stomach tube) was 831.5 mm3; in assay [3] (Day 28, 30 mg/kg daily through a stomach tube) it was 958.5 mm3; in assay [3] (Day 31, 30 mg/kg daily through a stomach tube), 1,088.0 mm3; in assay [3] (Day 34, 30 mg/kg daily through a stomach tube), 1,134 mm3; in assay [3] (Day 37, 30 mg/kg daily through a stomach tube) it was 1,174 mm3; in assay [3] (Day 40, 30 mg/kg daily through a stomach tube) it was 1,208 mm3.
